In PubChem BioAssay (NCI):
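Exposure lasted 48 hours, with cells grown in 96-well plates and compounds tested at five concentrations. TGI: total growth inhibition.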

What was measured:
Experiment in all cases: NCI tumour cell line growth inhibition, 48 h
UACC-62 melanoma = test system: UACC-62 melanoma
M14 melanoma = test system: M14 melanoma
SR leukemia = test system: SR leukemia
UACC-257 melanoma = test system: UACC-257 melanoma
HCT-15 colon = test system: HCT-15 colon
COLO 205 colon = test system: COLO 205 colon
SNB-19 CNS = test system: SNB-19 CNS
MALME-3M melanoma = test system: MALME-3M melanoma
U251 CNS = test system: U251 CNS
CCRF-CEM leukemia = test system: CCRF-CEM leukemia
SF-539 CNS = test system: SF-539 CNS
NCI-H460 lung = test system: NCI-H460 lung
TK-10 renal = test system: TK-10 renal
HOP-92 NSCLC = test system: HOP-92 NSCLC
SK-MEL-28 melanoma = test system: SK-MEL-28 melanoma

## CSC1=C(C)S/C(=C\c2ccc(/C=C3\SC(C)=C(SC)S3)cc2)S1
UACC-62 melanoma
  TGI: > 100 µM
M14 melanoma
  TGI: > 100 µM
SR leukemia
  TGI: > 100 µM
UACC-257 melanoma
  TGI: > 100 µM
HCT-15 colon
  TGI: > 100 µM
COLO 205 colon
  TGI: > 100 µM
SNB-19 CNS
  TGI: > 100 µM
MALME-3M melanoma
  TGI: > 100 µM
U251 CNS
  TGI: > 100 µM
CCRF-CEM leukemia
  TGI: > 100 µM
SF-539 CNS
  TGI: 92.5 µM
NCI-H460 lung
  TGI: > 100 µM
TK-10 renal
  TGI: > 100 µM
HOP-92 NSCLC
  TGI: > 100 µM
SK-MEL-28 melanoma
  TGI: > 100 µM

## N#Cc1c(Cl)cccc1Oc1ccc(S(=O)(=O)/N=C(\NO)Nc2ccc(Cl)cc2)cc1
UACC-62 melanoma
  TGI: 29.3 µM
M14 melanoma
  TGI: 29.2 µM
SR leukemia
  TGI: 78.2 µM
UACC-257 melanoma
  TGI: 32.1 µM
HCT-15 colon
  TGI: 34.1 µM
COLO 205 colon
  TGI: 33.6 µM
SNB-19 CNS
  TGI: 30 µM
MALME-3M melanoma
  TGI: 33.9 µM
U251 CNS
  TGI: 33.1 µM
CCRF-CEM leukemia
  TGI: 43.9 µM
SF-539 CNS
  TGI: 32.3 µM
NCI-H460 lung
  TGI: 36.4 µM
TK-10 renal
  TGI: 30.7 µM
HOP-92 NSCLC
  TGI: 24.6 µM
SK-MEL-28 melanoma
  TGI: 41 µM

## COc1ccc(/C=C/C(=N/NC(=O)N/N=C(/C=C/c2ccc(OC)cc2)C(C)C)C(C)C)cc1
UACC-62 melanoma
  TGI: > 100 µM
M14 melanoma
  TGI: > 100 µM
SR leukemia
  TGI: > 100 µM
UACC-257 melanoma
  TGI: > 100 µM
HCT-15 colon
  TGI: > 100 µM
COLO 205 colon
  TGI: > 100 µM
SNB-19 CNS
  TGI: > 100 µM
MALME-3M melanoma
  TGI: > 100 µM
U251 CNS
  TGI: > 100 µM
CCRF-CEM leukemia
  TGI: > 100 µM
SF-539 CNS
  TGI: > 100 µM
NCI-H460 lung
  TGI: > 100 µM
TK-10 renal
  TGI: > 100 µM
HOP-92 NSCLC
  TGI: > 100 µM
SK-MEL-28 melanoma
  TGI: > 100 µM

## O=C1CSC2(CC(/C=C/c3cccc(Br)c3)=NN2c2cccc(S(=O)(=O)O)c2)N1c1nc2ccccc2s1 (stereo not given)
UACC-62 melanoma
  TGI: > 100 µM
M14 melanoma
  TGI: > 100 µM
SR leukemia
  TGI: > 100 µM
UACC-257 melanoma
  TGI: > 100 µM
HCT-15 colon
  TGI: > 100 µM
COLO 205 colon
  TGI: > 100 µM
SNB-19 CNS
  TGI: > 100 µM
MALME-3M melanoma
  TGI: > 100 µM
U251 CNS
  TGI: > 100 µM
CCRF-CEM leukemia
  TGI: > 100 µM
SF-539 CNS
  TGI: > 100 µM
NCI-H460 lung
  TGI: > 100 µM
TK-10 renal
  TGI: > 100 µM
HOP-92 NSCLC
  TGI: > 100 µM
SK-MEL-28 melanoma
  TGI: > 100 µM

## CC1=CC(=C(c2ccc(N)c(C)c2)c2ccc(N)c(C)c2)C=CC1=N
UACC-62 melanoma
  TGI: 10.2 µM
M14 melanoma
  TGI: 18.3 µM
SR leukemia
  TGI: 18.3 µM
UACC-257 melanoma
  TGI: 15.7 µM
HCT-15 colon
  TGI: > 61.4 µM
COLO 205 colon
  TGI: 5.87 µM
SNB-19 CNS
  TGI: 15.8 µM
MALME-3M melanoma
  TGI: 11.2 µM
U251 CNS
  TGI: 12.8 µM
CCRF-CEM leukemia
  TGI: 23 µM
SF-539 CNS
  TGI: 14.5 µM
NCI-H460 lung
  TGI: > 31.6 µM
TK-10 renal
  TGI: > 66.2 µM
HOP-92 NSCLC
  TGI: 14.2 µM
SK-MEL-28 melanoma
  TGI: 19.2 µM

## CC(C)(C)c1ccc(Oc2ccc(C#N)c(C#N)c2)c(C(C)(C)C)c1
UACC-62 melanoma
  TGI: > 100 µM
M14 melanoma
  TGI: > 100 µM
SR leukemia
  TGI: 40.3 µM
UACC-257 melanoma
  TGI: > 100 µM
HCT-15 colon
  TGI: 31.3 µM
COLO 205 colon
  TGI: > 59.1 µM
SNB-19 CNS
  TGI: > 100 µM
MALME-3M melanoma
  TGI: > 100 µM
U251 CNS
  TGI: > 100 µM
CCRF-CEM leukemia
  TGI: > 66.2 µM
SF-539 CNS
  TGI: > 100 µM
NCI-H460 lung
  TGI: > 71.1 µM
TK-10 renal
  TGI: > 100 µM
HOP-92 NSCLC
  TGI: > 100 µM
SK-MEL-28 melanoma
  TGI: > 100 µM

## COC(=O)C1=C(O)C(C(=O)OC)[C@]2(O)[C@H](C(=O)OC)[C@H]1C[C@@H](c1ccc(O)cc1)[C@H]2C(=O)OC (stereo not given in full)
UACC-62 melanoma
  TGI: > 100 µM
M14 melanoma
  TGI: > 100 µM
SR leukemia
  TGI: > 100 µM
UACC-257 melanoma
  TGI: > 100 µM
HCT-15 colon
  TGI: > 100 µM
COLO 205 colon
  TGI: > 100 µM
SNB-19 CNS
  TGI: > 100 µM
MALME-3M melanoma
  TGI: > 100 µM
U251 CNS
  TGI: 50.1 µM
CCRF-CEM leukemia
  TGI: > 100 µM
SF-539 CNS
  TGI: 88.3 µM
NCI-H460 lung
  TGI: 74.5 µM
TK-10 renal
  TGI: 86.4 µM
HOP-92 NSCLC
  TGI: > 100 µM
SK-MEL-28 melanoma
  TGI: > 100 µM
